According to patent publication US20240327381A1, “Compounds and Compositions for Selective Degradation of Engineered Proteins” (Celgene Corporation, priority 2023, published 2024):

Tests used:
Assay type in all cases: cell-based
[1] = biological target: T1, IKZF1 ZNF2_ZNF3 Q1F degron-tagged CD19 CAR (Homo sapiens, UniProt Q13422, Q146F); test: Degradation of Q1F degron-tagged CD19 CAR in Jurkat cells (flow cytometry of CAR levels); details: for DC50: Jurkat cells expressing CD19 CAR tagged with IKZF1 ZNF2_ZNF3 Q1F, 18 hours at 37° C., CAR levels normalized to untreated cells, read-out: Q1F Jurkat IC50; for Dmax: Ymax is the % protein degraded, Jurkat cells expressing Q1F degron-tagged CD19 CAR, 18 hours, read-out: Q1F Jurkat-YMax
T1 construct: ZNF2_ZNF3 Q1F degron (GERPFFCNQCGASFTQKGNLLRHIKLHSGEKPFKCHLCNYACRRRDALTGHLRTHS); fused on or other part: anti-CD19 scFv, CD28 transmembrane domain, 4-1BB costimulatory domain, CD3 zeta signaling domain (the CAR that carries the degron), and Nluc
T1 sequence (Q13422 whole entry Q146F, the tested form may be a part): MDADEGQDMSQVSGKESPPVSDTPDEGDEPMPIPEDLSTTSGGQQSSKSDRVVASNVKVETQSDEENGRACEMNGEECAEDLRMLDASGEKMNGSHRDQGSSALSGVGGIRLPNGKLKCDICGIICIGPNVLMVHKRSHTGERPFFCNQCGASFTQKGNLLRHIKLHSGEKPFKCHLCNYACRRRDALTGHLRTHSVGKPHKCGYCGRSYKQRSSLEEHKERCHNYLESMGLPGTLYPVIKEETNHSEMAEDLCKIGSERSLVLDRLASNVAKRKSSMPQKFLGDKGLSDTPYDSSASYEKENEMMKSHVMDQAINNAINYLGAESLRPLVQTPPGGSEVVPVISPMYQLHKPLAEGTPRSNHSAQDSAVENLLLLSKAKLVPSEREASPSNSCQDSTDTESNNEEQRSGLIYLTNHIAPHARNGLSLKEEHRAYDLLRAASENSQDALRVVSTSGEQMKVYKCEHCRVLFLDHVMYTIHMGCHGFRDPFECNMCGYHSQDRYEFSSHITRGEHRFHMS
Outline: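 Jurkat cells were lentivirally transduced with an anti-CD19 scFv/CD28 TM/4-1BB/CD3ζ CAR tagged with an IKZF1 ZNF2_ZNF3 Q1F degron–Nluc, then treated with compound titrations for 18 h at 37 °C. CAR surface levels were stained (20 min, 4 °C), read by flow cytometry and normalised to untreated cells. EC50 came from a four-parameter logistic fit; Ymin is the minimum % CAR remaining.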

Helios [2] = biological target: T2, Helios (Homo sapiens, UniProt Q96SW2+Q9UKS7); test: Helios degradation in Jurkat/Helios/HiBit cells (Nano-Glo luminescence); details: for Helios Jurkat Hibit YMax: Ymax is the % protein degraded, 18 hr
T2 construct: endogenous in cells; host or cells: Jurkat cells, CRISPR/Cas9 knock-in of HiBit at the IKZF2 locus
T2 sequence (Q9UKS7 whole entry): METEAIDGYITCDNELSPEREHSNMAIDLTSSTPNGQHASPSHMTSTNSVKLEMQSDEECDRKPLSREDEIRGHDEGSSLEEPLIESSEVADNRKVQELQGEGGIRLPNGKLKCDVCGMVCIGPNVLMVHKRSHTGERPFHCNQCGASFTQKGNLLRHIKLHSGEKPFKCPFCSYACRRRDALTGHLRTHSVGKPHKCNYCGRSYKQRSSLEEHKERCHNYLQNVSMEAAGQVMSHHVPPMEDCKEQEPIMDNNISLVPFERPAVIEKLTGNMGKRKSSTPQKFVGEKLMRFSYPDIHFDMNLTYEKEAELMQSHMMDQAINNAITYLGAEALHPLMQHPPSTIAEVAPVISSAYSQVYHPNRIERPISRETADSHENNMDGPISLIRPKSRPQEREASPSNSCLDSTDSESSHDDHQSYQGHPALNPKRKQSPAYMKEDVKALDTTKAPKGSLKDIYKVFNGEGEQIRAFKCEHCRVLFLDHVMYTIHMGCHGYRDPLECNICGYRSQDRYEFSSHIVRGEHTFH
T2 sequence (Q96SW2 whole entry): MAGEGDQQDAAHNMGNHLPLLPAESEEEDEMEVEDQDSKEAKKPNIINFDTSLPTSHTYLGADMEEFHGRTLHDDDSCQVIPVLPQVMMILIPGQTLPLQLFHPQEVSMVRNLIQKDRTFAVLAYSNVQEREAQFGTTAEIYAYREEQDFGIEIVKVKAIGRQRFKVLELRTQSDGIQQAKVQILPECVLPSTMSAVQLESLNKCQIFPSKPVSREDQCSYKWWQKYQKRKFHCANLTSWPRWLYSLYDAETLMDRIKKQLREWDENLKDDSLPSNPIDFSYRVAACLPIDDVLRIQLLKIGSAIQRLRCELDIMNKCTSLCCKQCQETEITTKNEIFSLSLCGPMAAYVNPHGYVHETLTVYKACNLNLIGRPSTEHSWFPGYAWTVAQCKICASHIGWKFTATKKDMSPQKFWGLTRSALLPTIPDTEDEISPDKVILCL
T2 sequence (Q16531 whole entry partner): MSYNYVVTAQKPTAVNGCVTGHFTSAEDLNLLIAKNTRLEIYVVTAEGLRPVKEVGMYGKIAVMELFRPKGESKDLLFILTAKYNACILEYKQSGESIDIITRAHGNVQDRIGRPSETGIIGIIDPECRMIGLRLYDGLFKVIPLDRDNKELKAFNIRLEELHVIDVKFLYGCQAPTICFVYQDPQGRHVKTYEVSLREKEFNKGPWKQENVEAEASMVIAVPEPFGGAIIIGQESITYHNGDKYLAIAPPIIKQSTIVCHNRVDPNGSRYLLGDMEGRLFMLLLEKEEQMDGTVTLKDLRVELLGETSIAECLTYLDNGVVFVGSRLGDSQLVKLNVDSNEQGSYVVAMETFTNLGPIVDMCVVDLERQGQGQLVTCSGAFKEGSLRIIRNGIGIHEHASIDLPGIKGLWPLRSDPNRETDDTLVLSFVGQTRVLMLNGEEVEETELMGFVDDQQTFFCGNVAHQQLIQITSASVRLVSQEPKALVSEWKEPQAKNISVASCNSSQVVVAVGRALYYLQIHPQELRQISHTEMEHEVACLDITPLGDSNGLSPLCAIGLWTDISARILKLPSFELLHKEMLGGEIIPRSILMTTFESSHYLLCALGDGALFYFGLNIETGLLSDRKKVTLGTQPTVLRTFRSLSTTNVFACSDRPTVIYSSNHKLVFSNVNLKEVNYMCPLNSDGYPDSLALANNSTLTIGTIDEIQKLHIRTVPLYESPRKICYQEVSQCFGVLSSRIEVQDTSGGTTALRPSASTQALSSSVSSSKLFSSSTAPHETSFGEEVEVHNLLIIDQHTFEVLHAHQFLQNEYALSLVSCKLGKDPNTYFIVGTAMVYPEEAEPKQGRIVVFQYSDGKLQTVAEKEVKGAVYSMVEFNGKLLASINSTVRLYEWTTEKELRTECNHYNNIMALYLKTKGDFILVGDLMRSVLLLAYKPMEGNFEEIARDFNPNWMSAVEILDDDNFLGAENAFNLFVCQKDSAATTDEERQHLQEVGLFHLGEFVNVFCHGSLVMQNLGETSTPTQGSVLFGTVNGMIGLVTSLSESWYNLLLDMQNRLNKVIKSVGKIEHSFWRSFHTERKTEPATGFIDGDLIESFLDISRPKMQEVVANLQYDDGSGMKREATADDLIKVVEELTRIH
Outline: (§1)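 Jurkat cells carrying CRISPR-knocked-in C-terminal HiBit-tagged endogenous IKZF2 were treated with compound in DMEM/10% FCS (10,000 cells/well) for 18 h at 37 °C. HiBit signal was read by Nano-Glo luminescence after 30 min at RT. EC50 for degradation came from a four-parameter logistic fit, with Ymax as % protein degraded.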

Helios [3] = biological target: T3, Helios (Homo sapiens, UniProt Q9UKS7); test: as above; details: 18 hr, read-out: Helios Jurkat Hibit IC50
T3 construct: endogenous in cells; host or cells: Jurkat cells, CRISPR/Cas9 knock-in of HiBit at the IKZF2 locus
T3 sequence (Q9UKS7 whole entry): as the sequence (Q9UKS7 whole entry) above
T3 sequence (Q96SW2 whole entry, further chain): as the sequence (Q96SW2 whole entry) above
T3 sequence (Q16531 whole entry partner): as the sequence (Q16531 whole entry partner) above
Outline: as §1

| DC50 [1] | Dmax [1] | Helios Jurkat Hibit YMax (Helios [2]) | DC50 (Helios [3]) | Compound | DC50 (Helios [2]; read-out: Helios Jurkat Hibit IC50, 18 hr) |
| --- | --- | --- | --- | --- | --- |
| 0.00267 µM | 92.9% | 64.8253% | 0.012 µM | Cc1cc(-c2cc(F)c3c(c2)CN(C2CCC(=O)NC2=O)C3=O)nc(N)c1C (stereo not shown) [Compound 16, 3-(5-(6-amino-4,5-dimethylpyridin-2-yl)-7-fluoro-1-oxoisoindolin-2-yl)piperidine-2,6-dione] | – |
| 0.000112 µM | 91.8% | 50.8729% | 6520 µM | Cc1ccc(CN2CCC(c3c(F)cc4c(c3F)CN(C3CCC(=O)NC3=O)C4=O)CC2)cc1F (stereo not shown) [Compound 46, 3-(4,6-difluoro-5-(1-(3-fluoro-4-methylbenzyl)piperidin-4-yl)-1-oxoisoindolin-2-yl)piperidine-2,6-dione] | – |
| 0.000204 µM | 93.4% | 59.5442% | 0.152 µM | O=C1CCC(N2Cc3c(cc(F)c(C4CCN(Cc5ccc6[nH]ccc6c5)CC4)c3F)C2=O)C(=O)N1 (stereo not shown) [Compound 61, 3-(5-(1-((1H-indol-5-yl)methyl)piperidin-4-yl)-4,6-difluoro-1-oxoisoindolin-2-yl)piperidine-2,6-dione] | – |
| 0.000103 µM | 93% | 55.0199% | 3.31 µM | O=C1CCC(N2Cc3c(cc(F)c(C4CCN(Cc5ccc6[nH]ncc6c5)CC4)c3F)C2=O)C(=O)N1 (stereo not shown) [Compound 63, 3-(5-(1-((1H-indazol-5-yl)methyl)piperidin-4-yl)-4,6-difluoro-1-oxoisoindolin-2-yl)piperidine-2,6-dione] | – |
| 0.00228 µM | 91.5% | – | ≥ 10 µM | CS(=O)(=O)Nc1cccc(CN2CCC(c3c(F)cc4c(c3F)CN(C3CCC(=O)NC3=O)C4=O)CC2)c1 (stereo not shown) [Compound 109, N-(3-((4-(2-(2,6-dioxopiperidin-3-yl)-4,6-difluoro-1-oxoisoindolin-5-yl)piperidin-1-yl)methyl)phenyl) methanesulfonamide] | – |
| 0.00112 µM | 90.5% | – | ≥ 10 µM | CN(C)c1ccc(CN2CCC(c3c(F)cc4c(c3F)CN(C3CCC(=O)NC3=O)C4=O)CC2)cc1 (stereo not shown) [Compound 110, 3-(5-(1-(4-(dimethylamino)benzyl)piperidin-4-yl)-4,6-difluoro-1-oxoisoindolin-2-yl)piperidine-2,6-dione] | – |
| 0.00745 µM | 82.7% | – | ≥ 10 µM | Cc1ccc(CCN2CCC(c3c(F)cc4c(c3F)CN(C3CCC(=O)NC3=O)C4=O)CC2)cc1 (stereo not shown) [Compound 111, 3-(4,6-difluoro-5-(1-(4-methylphenethyl)piperidin-4-yl)-1-oxoisoindolin-2-yl)piperidine-2,6-dione] | – |
| 0.00323 µM | 84.6% | – | ≥ 10 µM | O=C1CCC(N2Cc3c(cc(F)c(C4CCN(CC5CCCC5)CC4)c3F)C2=O)C(=O)N1 (stereo not shown) [Compound 112, 3-(5-(1-(cyclopentylmethyl)piperidin-4-yl)-4,6-difluoro-1-oxoisoindolin-2-yl)piperidine-2,6-dione] | – |
| 0.00273 µM | 82.5% | – | ≥ 10 µM | CC(C)CCN1CCC(c2c(F)cc3c(c2F)CN(C2CCC(=O)NC2=O)C3=O)CC1 (stereo not shown) [Compound 113, 3-(4,6-difluoro-5-(1-isopentylpiperidin-4-yl)-1-oxoisoindolin-2-yl)piperidine-2,6-dione] | – |
| 0.0108 µM | 74.8% | – | ≥ 10 µM | O=C1CCC(N2Cc3c(cc(F)c(C4CCN(CCC(F)(F)F)CC4)c3F)C2=O)C(=O)N1 (stereo not shown) [Compound 114, 3-(4,6-difluoro-1-oxo-5-(1-(3,3,3-trifluoropropyl)piperidin-4-yl)isoindolin-2-yl)piperidine-2,6-dione] | – |
| 0.00666 µM | 79.7% | – | ≥ 10 µM | CCCCN1CCC(c2c(F)cc3c(c2F)CN(C2CCC(=O)NC2=O)C3=O)CC1 (stereo not shown) [Compound 115, 3-(5-(1-butylpiperidin-4-yl)-4,6-difluoro-1-oxoisoindolin-2-yl)piperidine-2,6-dione] | – |
| 0.00319 µM | 85.5% | – | ≥ 10 µM | O=C1CCC(N2Cc3c(cc(F)c(C4CCN(Cc5cnc6ccccc6n5)CC4)c3F)C2=O)C(=O)N1 (stereo not shown) [Compound 116, 3-(4,6-difluoro-1-oxo-5-(1-(quinoxalin-2-ylmethyl)piperidin-4-yl)isoindolin-2-yl)piperidine-2,6-dione] | – |
| 0.00626 µM | 86.1% | – | ≥ 10 µM | O=C1CCC(N2Cc3c(cc(F)c(C4CCN(Cc5ccncc5)CC4)c3F)C2=O)C(=O)N1 (stereo not shown) [Compound 117, 3-(4,6-difluoro-1-oxo-5-(1-(pyridin-4-ylmethyl)piperidin-4-yl)isoindolin-2-yl)piperidine-2,6-dione] | – |
| 0.00286 µM | 83% | – | ≥ 10 µM | O=C1CCC(N2Cc3c(cc(F)c(C4CCN(CCCOc5ccccc5)CC4)c3F)C2=O)C(=O)N1 (stereo not shown) [Compound 118, 3-(4,6-difluoro-1-oxo-5-(1-(3-phenoxypropyl)piperidin-4-yl)isoindolin-2-yl)piperidine-2,6-dione] | – |
| 0.165 µM | 65.8% | – | ≥ 10 µM | O=C1CCC(N2Cc3c(cc(F)c(C4CCN(Cc5nnc(-c6ccccc6)o5)CC4)c3F)C2=O)C(=O)N1 (stereo not shown) [Compound 120, 3-(4,6-difluoro-1-oxo-5-(1-((5-phenyl-1,3,4-oxadiazol-2-yl)methyl)piperidin-4-yl)isoindolin-2-yl)piperidine-2,6-dione] | – |
| 0.0204 µM | 76.7% | – | ≥ 10 µM | CS(=O)(=O)CCCN1CCC(c2c(F)cc3c(c2F)CN(C2CCC(=O)NC2=O)C3=O)CC1 (stereo not shown) [Compound 121, 3-(4,6-difluoro-5-(1-(3-(methylsulfonyl)propyl)piperidin-4-yl)-1-oxoisoindolin-2-yl)piperidine-2,6-dione] | – |
| 0.0651 µM | 74.2% | – | ≥ 10 µM | CNC(=O)CN1CCC(c2c(F)cc3c(c2F)CN(C2CCC(=O)NC2=O)C3=O)CC1 (stereo not shown) [Compound 122, 2-(4-(2-(2,6-dioxopiperidin-3-yl)-4,6-difluoro-1-oxoisoindolin-5-yl)piperidin-1-yl)-N-methylacetamide] | – |
| 0.0213 µM | 74.5% | – | ≥ 10 µM | O=C1CCC(N2Cc3c(cc(F)c(C4CCN(CCO)CC4)c3F)C2=O)C(=O)N1 (stereo not shown) [Compound 123, 3-(4,6-difluoro-5-(1-(2-hydroxyethyl)piperidin-4-yl)-1-oxoisoindolin-2-yl)piperidine-2,6-dione] | – |
| 0.011 µM | 76.7% | – | ≥ 10 µM | COCCN1CCC(c2c(F)cc3c(c2F)CN(C2CCC(=O)NC2=O)C3=O)CC1 (stereo not shown) [Compound 124, 3-(4,6-difluoro-5-(1-(2-methoxyethyl)piperidin-4-yl)-1-oxoisoindolin-2-yl)piperidine-2,6-dione] | – |
| 0.0221 µM | 80.1% | – | ≥ 10 µM | CN1CCC(N2CCC(c3c(F)cc4c(c3F)CN(C3CCC(=O)NC3=O)C4=O)CC2)CC1 (stereo not shown) [Compound 125, 3-(4,6-difluoro-5-(1′-methyl-[1,4′-bipiperidin]-4-yl)-1-oxoisoindolin-2-yl)piperidine-2,6-dione] | – |

| Compound | DC50 [1] | Dmax [1] | Helios Jurkat Hibit YMax (Helios [2]) | DC50 (Helios [3]) | DC50 (Helios [2]; read-out: Helios Jurkat Hibit IC50, 18 hr) |
| --- | --- | --- | --- | --- | --- |
| O=C1CCC(N2Cc3c(cc(F)c(C4(O)CCN(Cc5ccc(C(F)(F)F)cc5)CC4)c3F)C2=O)C(=O)N1 (stereo not shown) [Compound 11, 3-(4,6-difluoro-5-(4-hydroxy-1-(4-(trifluoromethyl)benzyl)piperidin-4-yl)-1-oxoisoindolin-2-yl)piperidine-2,6-dione] | 0.00491 µM | 83.5% | – | – | ≥ 10 µM |
| O=C1CC[C@H](N2Cc3c(cc(F)c(C4CC5CCC(C4)N5Cc4ccc5ncsc5c4)c3F)C2=O)C(=O)N1 (stereo partly drawn) [Compound 126, (3S)-3-(5-(8-(benzo[d]thiazol-6-ylmethyl)-8-azabicyclo[3.2.1]octan-3-yl)-4,6-difluoro-1-oxoisoindolin-2-yl)piperidine-2,6-dione] | 0.000427 µM | 92.2% | – | ≥ 10 µM | – |
| O=C1CC[C@@H](N2Cc3c(cc(F)c(C4CC5CCC(C4)N5Cc4ccc5ncsc5c4)c3F)C2=O)C(=O)N1 (stereo partly drawn) [Compound 127, (3R)-3-(5-(8-(benzo[d]thiazol-6-ylmethyl)-8-azabicyclo[3.2.1]octan-3-yl)-4,6-difluoro-1-oxoisoindolin-2-yl)piperidine-2,6-dione] | 0.00594 µM | 91.2% | – | ≥ 10 µM | – |
| O=C1CCC(N2Cc3c(cc(F)c(C4C[C@H]5CC[C@@H](C4)N5Cc4ccc(C(F)F)cc4)c3F)C2=O)C(=O)N1 (stereo partly drawn) [Compound 128, 3-(5-((1R,5S)-8-(4-(difluoromethyl)benzyl)-8-azabicyclo[3.2.1]octan-3-yl)-4,6-difluoro-1-oxoisoindolin-2-yl)piperidine-2,6-dione] | 0.0174 µM | 87.2% | – | ≥ 10 µM | – |
